From ChEMBL document CHEMBL1201862, “PubChem BioAssay data set” (2004) come the findings set out here.

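A five-concentration, 48-hour dose response in 96-well plates underlies each endpoint, interpolated linearly between surrounding concentrations. The concentration for 50% growth inhibition is given as GI50.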 The source made the active and inactive calls. Rule as the data show it: active = GI50 up to about 1.1 µM and inactive = higher.

Test systems include CCRF-CEM; SNB-19; DU-145; NCI-H23; SF-539; OVCAR-4; UACC-62; SF-295; PC-3; HCT-116; U-251; MCF7; RXF 393; Malme-3M; MDA-MB-435; SK-OV-3; SN12C; MDA-N; NCI-H460; OVCAR-8.
Assay in all cases: NCI-60 cell line screen, 48 h

With `COc1ccc(N[C@H]([C@@H](c2ccccc2)[S+]([O-])c2ccc(C)cc2)C(F)(F)F)cc1` (stereo not given in full), the GI50 in the test with CCRF-CEM was 21.8 µM (inactive); in the test on SNB-19, 33.1 µM (inactive); in the test with DU-145, 62.8 µM (inactive); in the test with NCI-H23, 41.5 µM (inactive); in the test with SF-539, 22.5 µM (inactive); with OVCAR-4 it was 26 µM (inactive). Also, the GI50 in the test on UACC-62 is 29.1 µM (inactive); in the test on SF-295, 82.8 µM (inactive); in the test with PC-3, 21.1 µM (inactive); with HCT-116, 29.4 µM (inactive); in the test on U-251, 17.9 µM (inactive); in the test on MCF7, 38.9 µM (inactive). Moreover, the GI50 with RXF 393 is 53.5 µM (inactive); with Malme-3M, 75.2 µM (inactive); in the test with MDA-MB-435, 41.1 µM (inactive); in the test with SK-OV-3 it was > 100 µM (inactive); in the test with SN12C it was 71.8 µM (inactive); in the test with MDA-N, 74.8 µM (inactive). Further, the GI50 was 50.1 µM (inactive) with NCI-H460 and 80.9 µM (inactive) in the test with OVCAR-8.
Consider `CCOC(=O)c1ccc(C(=O)/C(C(C)=O)=C2\CCCN2C)n1C`, for which the GI50 is 52.5 µM (inactive) with CCRF-CEM; 73.3 µM (inactive) in the test on SNB-19; > 100 µM (inactive) in the test with DU-145; 90.6 µM (inactive) in the test with NCI-H23; 0.303 µM (active) in the test on SF-539; 71.1 µM (inactive) in the test on OVCAR-4. Also, the GI50 in the test on UACC-62 was 49.1 µM (inactive); with SF-295 it was 56.9 µM (inactive); with PC-3, > 100 µM (inactive); in the test on HCT-116, 30.6 µM (inactive); in the test with U-251, 86.5 µM (inactive); in the test on MCF7, 61.7 µM (inactive). Also, the GI50 in the test with RXF 393 is 29.5 µM (inactive); in the test on Malme-3M, > 100 µM (inactive); in the test on MDA-MB-435, > 100 µM (inactive); with SK-OV-3, 30.7 µM (inactive); in the test on SN12C it was > 100 µM (inactive); with MDA-N, 86.3 µM (inactive). In addition, the GI50 in the test on NCI-H460 and in the test on OVCAR-8 was > 100 µM (inactive) each time.
Turning to `COC(=O)C/N=C1\NC(=S)N(Cc2ccc(OC)cc2)C12CCCC2`, the GI50 in the test with CCRF-CEM, in the test on SNB-19, in the test on DU-145, in the test with NCI-H23, in the test on SF-539 and with OVCAR-4 was > 100 µM (inactive) throughout. Moreover, the GI50 in the test on UACC-62, in the test on SF-295, in the test on PC-3, in the test on HCT-116, in the test with U-251 and in the test on MCF7 was > 100 µM (inactive) throughout. In addition, the GI50 in the test with RXF 393, in the test on Malme-3M, with MDA-MB-435, in the test on SK-OV-3, in the test with SN12C and with MDA-N was > 100 µM (inactive) in each case. Besides, the GI50 in the test with NCI-H460 and in the test with OVCAR-8 was > 100 µM (inactive) throughout.
In the case of `Cc1cccc(/C=N\NC(=S)N2CCCCC2)n1`, the GI50 with CCRF-CEM is < 0.01 µM (active); in the test on SNB-19, 0.665 µM (active); with DU-145, 0.362 µM (active); in the test with NCI-H23 it was 0.0689 µM (active); in the test on SF-539, 0.156 µM (active); in the test on OVCAR-4, < 0.01 µM (active). Also, the GI50 in the test with UACC-62 was 0.383 µM (active); in the test on SF-295 it was 0.211 µM (active); in the test with PC-3, 0.0435 µM (active); with HCT-116, < 0.01 µM (active); in the test on U-251, < 0.01 µM (active); in the test on MCF7, < 0.01 µM (active). Also, the GI50 is 0.145 µM (active) in the test on RXF 393; 0.867 µM (active) in the test with Malme-3M; 0.56 µM (active) in the test with MDA-MB-435; 0.685 µM (active) in the test on SK-OV-3; 0.181 µM (active) in the test on SN12C; 0.306 µM (active) with MDA-N. Moreover, the GI50 in the test on NCI-H460 is 0.22 µM (active); with OVCAR-8, 0.036 µM (active).
